From paper PMC12040169 (PLOS Biology, 2025)

Experiment: in vitro
Details: human, hela cells, % viability

Compound	viability at 28.5 h, 10 µM [%]
CCNS(=O)(=O)c1ccc(Cn2nc(NC(=O)C3COc4ccccc4O3)c3ccccc32)cc1 (centres unmarked) [CBK061613]	109
CN1CCC2(CC1)NCCc1c2ccn1S(=O)(=O)c1cccc2c(N(C)C)cccc12 [CBK061633C]	105
CCN(C(=O)c1cnccn1)C(CC1CCCCC1)c1ccccc1 (centres unmarked) [CBK061638]	92.9
COc1ccc2[nH]c3c(c2c1)CCNC31CCN(C(=O)COc2ccccc2)C1 (centres unmarked) [CBK061661]	88.8
Cc1c(C(N)=O)sc2nc(C(F)(F)F)cc(N)c12 [CBK061693]	97.1
CN(C)c1ccnc2sc(C(N)=O)c(N)c12 [CBK061708]	94
O=C(Nc1cccc(C(F)(F)F)c1)Nc1cc(N2CCNCC2)c2occc2c1 [CBK061746C]	91.4
Cn1cc(CCCC(=O)NCCC2=CCCCC2)c2ccccc21 [CBK061756]	99.2
O=C(Nc1cc(N2CCNCC2)c2occc2c1)c1cccc(C(F)(F)F)c1 [CBK061762C]	86.5
CCNC(CO)c1ccccc1 (centres unmarked) [CBK061785]	109
Fc1ccc(OCCN2CCC3(C2)OCCc2c3[nH]c3ccccc23)cc1 (centres unmarked) [CBK061787]	86.7
Cc1ccc2[nH]cc(CCN3CCC4(C3)OCCc3c4[nH]c4ccccc34)c2c1 (centres unmarked) [CBK061790]	84.7
CC(=O)c1ccc(-c2ccc3ccc(N)nc3n2)cc1 [CBK061862]	84.4
Nc1ccc2ccc(-c3ccccc3)nc2n1 [CBK061865]	97
CC(C)(C)c1ccc(-c2ccc3ccc(N)nc3n2)cc1 [CBK061872]	79.3
CC(=O)c1ccc(-c2nc(NS(C)(=O)=O)cc3cccnc23)cc1 [CBK061874]	96.3
COc1cc(-c2nc(N)cc3cccnc23)cc(OC)c1OC [CBK061892]	101
CS(=O)(=O)Nc1ccc2cc(-c3ccccc3)cnc2n1 [CBK061899]	91.2
CN1CCC2(CC1)NCCc1c2ccn1S(=O)(=O)c1ccc(I)cc1 [CBK061945C]	111
Cc1nn(C)c(Cl)c1S(=O)(=O)Nc1nnc(C(F)(F)F)s1 [CBK062003]	92
O=S(=O)(Nc1nnc(C(F)(F)F)s1)c1ccc(Oc2ccccc2)cc1 [CBK062007]	92.6
O=S(=O)(Nc1nnc(C(F)(F)F)s1)c1csc2ccccc12 [CBK062009]	95.9
O=S(=O)(Nc1nnc(C(F)(F)F)s1)c1ccc(Br)cc1C(F)(F)F [CBK062013]	96.7
Cc1nnc(-c2cccc(S(=O)(=O)Nc3nnc(C(F)(F)F)s3)c2)o1 [CBK062014]	99.1
Cn1nc(-c2ccc(S(=O)(=O)Nc3nnc(C(F)(F)F)s3)s2)cc1C(F)(F)F [CBK062017]	103
O=S(=O)(Nc1nnc(C(F)(F)F)s1)c1ccc(-c2cc(C(F)(F)F)on2)s1 [CBK062019]	91.1

Compound	viability at 28.5 h, 10 µM [%]
O=S(=O)(NC1CCN(Cc2ccccc2)CC1)c1ccc(-c2ccon2)s1 [CBK062038]	93.5
Cn1nccc1NS(=O)(=O)c1cccc2cccnc12 [CBK062069]	98.9
Cc1nn(C)c(Cl)c1S(=O)(=O)Nc1ccnn1C [CBK062072]	85.6
Cn1nccc1NS(=O)(=O)c1ccc(Br)cc1C(F)(F)F [CBK062082]	104
Cn1nccc1NS(=O)(=O)c1ccc(-c2cc(C(F)(F)F)on2)s1 [CBK062087]	97.4
O=S(=O)(Nc1ccc(C(O)(C(F)(F)F)C(F)(F)F)cc1)c1cccc2cccnc12 [CBK062092]	91
O=[N+]([O-])c1cccc(S(=O)(=O)Nc2ccc(C(O)(C(F)(F)F)C(F)(F)F)cc2)c1 [CBK062093]	102
O=S(=O)(Nc1ccc(C(O)(C(F)(F)F)C(F)(F)F)cc1)c1csc2ccccc12 [CBK062098]	85.4
O=[N+]([O-])c1cc(S(=O)(=O)Nc2ccc(C(O)(C(F)(F)F)C(F)(F)F)cc2)ccc1Cl [CBK062106]	92.9
Cc1noc(C)c1S(=O)(=O)NCc1ccc(C(F)(F)F)c(F)c1 [CBK062112]	94.2
O=S(=O)(NCc1ccc(C(F)(F)F)c(F)c1)c1cccc2nsnc12 [CBK062113]	94.3
CS(=O)(=O)Nc1cccc(-c2nnn[nH]2)c1 [CBK062150]	90.4
Cc1nn(C)c(Cl)c1S(=O)(=O)NCc1cc(C)n(C)n1 [CBK062154]	94.5
Cc1noc(C)c1S(=O)(=O)NCc1cc(C)n(C)n1 [CBK062155]	103
Cc1cc(CNS(=O)(=O)c2cccc3nonc23)nn1C [CBK062157]	98.2
CCc1nnc(NS(=O)(=O)c2c(C)nn(C)c2Cl)s1 [CBK062180]	112
CCc1nnc(NS(C)(=O)=O)s1 [CBK062197]	93
O=S(=O)(Nc1cc(Cl)nc(Cl)c1)c1ccc(-c2cc(C(F)(F)F)on2)s1 [CBK062215]	90.9
O=S(=O)(Nc1ccc2nsnc2c1)c1cccc(C(F)(F)F)c1 [CBK062221]	106
Cc1noc(C)c1S(=O)(=O)Nc1ccc2nsnc2c1 [CBK062223]	90.4
Cc1c(S(=O)(=O)Nc2ccc3nsnc3c2)cnn1-c1ccccc1 [CBK062229]	87.6
O=S(=O)(Nc1ccc2nsnc2c1)c1ccc(Br)cc1C(F)(F)F [CBK062233]	115
Cc1cc(CNS(=O)(=O)c2c(C)noc2C)no1 [CBK062261]	91.4
Cc1cc(CNS(=O)(=O)c2cccc3nonc23)no1 [CBK062263]	106
Cc1cc(CNS(=O)(=O)c2ccc(-c3ccon3)s2)no1 [CBK062276]	103
Cc1nn(C)c(Cl)c1S(=O)(=O)Nc1cccnc1N1CCOCC1 [CBK062286]	99.5

Compound	viability at 28.5 h, 10 µM [%]
O=S(=O)(Nc1cccnc1N1CCOCC1)c1cc(C(F)(F)F)cc(C(F)(F)F)c1 [CBK062306]	122
Cc1cnc(CNS(=O)(=O)c2cnn(-c3ccccc3)c2C)cn1 [CBK062335]	96.5
Cc1cc(OC(F)(F)F)ccc1NS(=O)(=O)c1cnn(-c2ccccc2)c1C [CBK062354]	91.1
O=S(=O)(Nc1nnn[nH]1)c1cccc2nsnc12 [CBK062379]	99
O=S(=O)(Nc1nnn[nH]1)c1cccc2nonc12 [CBK062380]	104
O=S(=O)(Nc1nnn[nH]1)c1ccc(-c2ccccc2)cc1 [CBK062381]	99.7
O=S(=O)(Nc1nnn[nH]1)c1ccccc1Br [CBK062386]	96.3
O=S(=O)(Nc1nnn[nH]1)c1ccc(Cl)c(Cl)c1 [CBK062387]	106
O=S(=O)(Nc1nnn[nH]1)c1ccc(Br)cc1C(F)(F)F [CBK062388]	104
Cn1nc(-c2ccc(S(=O)(=O)Nc3nnn[nH]3)s2)cc1C(F)(F)F [CBK062390]	94.4
Cc1c(S(=O)(=O)Nc2nnn[nH]2)sc2ccc(Cl)cc12 [CBK062392]	91.7
O=S(=O)(Nc1nnn[nH]1)c1ccc(-c2cc(C(F)(F)F)on2)s1 [CBK062393]	96.9
O=S(=O)(c1csc2ccccc12)N1CCOCC1 [CBK062401]	90.7
CN1CCN(S(=O)(=O)c2ccc(Oc3ccccc3)cc2)CC1 [CBK062430]	113
CN1CCN(S(=O)(=O)c2ccc(N3CCOCC3)nc2)CC1 [CBK062434]	87.9
CN1CCN(S(=O)(=O)c2ccc(Br)cc2C(F)(F)F)CC1 [CBK062437]	90.7
CC(CCCC(C)(C)O)NS(=O)(=O)c1ccc(-c2ccon2)s1 (centres unmarked) [CBK062466]	93.8
Cc1c(S(=O)(=O)NC(C)CCCC(C)(C)O)sc2ccc(Cl)cc12 (centres unmarked) [CBK062467]	93.5
O=c1ccc2cc(S(=O)(=O)Nc3ccc4[nH]ccc4c3)ccc2o1 [CBK062503]	54.8
Cc1noc(C)c1S(=O)(=O)Nc1ccc2[nH]ncc2c1 [CBK062518]	87.8
O=S(=O)(Nc1ccc2[nH]ncc2c1)c1ccc(Br)cc1C(F)(F)F [CBK062529]	100
O=S(=O)(Nc1nnn[nH]1)c1csc2ccccc12 [CBK062590]	103
COc1ccc(CCNC(=O)[C@@H]2Cc3c([nH]c4ccccc34)[C@]3(CCN(Cc4ccccc4)C3)N2)cc1OC [CBK062620]	114
Cn1c(-c2nonc2N)nc2ccccc21 [CBK062642]	94.5

Same assay, conditions: human, hela cells, % viability, bulk resorufin, single well

Compound	viability at 28.5 h, 10 µM [%]
CC(=O)N1CCC2(CC1)OCc1cc(-c3cnc4ccccc4c3)ccc1O2 [CBK060976]	93.8
CS(=O)(=O)c1cccc(-c2ccc3c(c2)COC2(CCNCC2)O3)c1 [CBK060990]	94.4
c1cc(-c2ccc3c(c2)COC2(CCNCC2)O3)c2cccnc2c1 [CBK060995]	104
CC(=O)N1CCC2(CC1)OCc1cc(-c3ccccc3C#N)ccc1O2 [CBK061006]	100
CN(C)c1ccc(C(=O)N2CCC3(CC2)OCc2cc(Cl)ccc2O3)cc1 [CBK061067]	87.8
CSc1cc(C)c2c(c1)COC1(CCN(C(=O)Cc3ccccc3)CC1)O2 [CBK061099]	93.4
CSc1cc(C)c2c(c1)COC1(CCN(C(=O)c3ccco3)CC1)O2 [CBK061106]	92.6
O=C1NC(=O)C(CC(=O)N2CCC3(CC2)OCc2cc(-c4ccccc4)ccc2O3)N1 (centres unmarked) [CBK061111]	85.6
CC(C)C(=O)N1CCC2(CC1)OCc1cc(Cl)ccc1O2 [CBK061121]	89.6
COc1cccc2c1OC1(CCN(C(=O)c3cccn3C)CC1)OC2 [CBK061166]	85.1
COc1cccc2c1OC1(CCN(C(=O)C3CCC3)CC1)OC2 [CBK061168]	85.4
O=C(c1ccoc1)N1CCC2(CC1)OCc1ccccc1O2 [CBK061234]	94.7
Cc1nocc1C(=O)N1CCC2(CC1)OCc1ccccc1O2 [CBK061470]	105
